Patent publication US9957271B2, “Substituted bicyclic aza-heterocycles and analogues as sirtuin modulators” (GlaxoSmithKline, LLC, priority 2012, dated 2018)

Experiments:
SIRT1 [1] = target: T1, SIRT1 (Homo sapiens, UniProt Q96EB6); experiment: TAMRA based mass spectrometry assay of SIRT1 activity; assay type: biochemical; details: for Emax: read-out: TAMRA % Fold Act
T1 sequence (Q96EB6 1-747): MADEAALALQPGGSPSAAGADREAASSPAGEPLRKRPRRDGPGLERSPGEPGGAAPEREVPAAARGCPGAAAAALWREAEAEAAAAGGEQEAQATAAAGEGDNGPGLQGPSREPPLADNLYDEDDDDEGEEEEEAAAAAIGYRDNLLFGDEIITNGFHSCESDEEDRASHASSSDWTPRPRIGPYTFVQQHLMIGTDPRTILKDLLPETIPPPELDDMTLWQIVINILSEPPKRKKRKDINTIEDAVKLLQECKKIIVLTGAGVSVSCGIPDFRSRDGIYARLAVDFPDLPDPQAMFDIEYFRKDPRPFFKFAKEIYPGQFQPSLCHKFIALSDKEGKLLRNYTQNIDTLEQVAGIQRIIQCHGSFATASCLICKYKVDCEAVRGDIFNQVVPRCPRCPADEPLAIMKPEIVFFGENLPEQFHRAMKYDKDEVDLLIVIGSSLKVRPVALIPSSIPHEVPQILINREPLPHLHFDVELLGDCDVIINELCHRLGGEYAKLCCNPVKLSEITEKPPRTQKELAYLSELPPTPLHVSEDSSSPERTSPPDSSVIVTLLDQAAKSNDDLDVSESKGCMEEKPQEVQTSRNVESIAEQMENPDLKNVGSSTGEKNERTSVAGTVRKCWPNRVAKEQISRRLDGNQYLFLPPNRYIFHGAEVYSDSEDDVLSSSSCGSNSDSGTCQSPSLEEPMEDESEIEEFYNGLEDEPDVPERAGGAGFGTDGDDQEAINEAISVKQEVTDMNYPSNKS
Outline: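 Recombinant N-terminal His-tagged human SIRT1 (10 nM, E. coli) incubated 25 min at 25 °C with 0.5 μM 5TMR-labelled p53-derived acetyl-peptide and 120 μM βNAD+ in Tris-acetate pH 8 buffer with DTT and 0.05% BSA, compound at varying concentrations. Stopped with formic acid; deacetylated peptide or OAADPR measured by mass spectrometry relative to DMSO controls.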

SIRT1 [2] = target: T1, SIRT1; experiment: Trp mass spectrometry assay of SIRT1 activity; assay type: biochemical; details: for Emax: read-out: Trp % Fold Act
Outline: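 His-tagged SIRT1 expressed in E. coli BL21(DE3), 10 nM, incubated 25 min at 25° C. with 0.5 μM Ac-RHKK(Ac)W-NH2 peptide and 120 μM βNAD+ in 50 mM HEPES pH 7.5, […], 1 mM DTT, 0.05% BSA; formic acid stop. OAADPR or deacetylated peptide measured by mass spectrometry; EC1.5 and percent maximum activation versus DMSO control.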

[3] = TAMRA peptide substrate, concentration giving 150% activation of SIRT1
[4] = TAMRA peptide substrate, percent maximum fold activation
[5] = Trp peptide substrate, concentration giving 150% activation of SIRT1
[6] = Trp peptide substrate, percent maximum fold activation
[7] = concentration of test compound giving 150% activation of SIRT1, TAMRA peptide substrate
[8] = percent maximum fold activation of SIRT1, TAMRA peptide substrate
[9] = concentration of test compound giving 150% activation of SIRT1, Trp peptide substrate
[10] = percent maximum fold activation of SIRT1, Trp peptide substrate
[11] = TAMRA assay, concentration giving 150% activation of SIRT1
[12] = TAMRA assay, percent maximum fold activation
[13] = Trp assay, concentration giving 150% activation of SIRT1
[14] = Trp assay, percent maximum fold activation

Question: What does the source list for `Cc1cc(NC(=O)c2cnc3ccc(-c4ccccc4C(F)(F)F)nn23)cc(OCC(O)CO)n1` (centres unmarked) [Compound 406]?
Answer: TAMRA EC1.5 (SIRT1 [1]; [3]): A (EC1.5<1 μM); Emax (SIRT1 [1]; [4]): ≥ 350%; Trp EC1.5 (SIRT1 [2]; [5]): A (EC1.5<1 μM); Emax (SIRT1 [2]; [6]): ≥ 350%

Question: For `Cc1cnc(NC(=O)c2cnc3ccc(-c4cccc(C(F)(F)F)c4)nn23)s1` [Compound 17], which “TAMRA EC1.5 (μM)” value (SIRT1 [1]; [7]) is on record?
Answer: B (EC1.5 1-25 μM)

Question: And the Emax (SIRT1 [1]; [8])?
Answer: < 350%

Question: And the “Trp EC1.5 (μM)” value (SIRT1 [2]; [9])?
Answer: B (EC1.5 1-25 μM)

Question: And the Emax (SIRT1 [2]; [10])?
Answer: < 350%

Question: With `O=C(Nc1ccc(F)cn1)c1cnn2ccc(-c3ccccc3OC(F)(F)F)nc12` [Compound 609] as the compound, how does the “TAMRA EC1.5 (μM)” value (SIRT1 [1]; [11]) read?
Answer: C (EC1.5>25 μM)

Question: And the Emax (SIRT1 [1]; [12])?
Answer: < 350%

Question: And the “Trp EC1.5 (μM)” value (SIRT1 [2]; [13])?
Answer: C (EC1.5>25 μM)

Question: What about the Emax (SIRT1 [2]; [14]) of the same compound?
Answer: < 350%

Question: For `O=C(Nc1cnc2ccc(-c3ccccc3Cl)nn12)c1cscn1` [Compound 291], which “TAMRA EC1.5 (μM)” value (SIRT1 [1]; [11]) is on record?
Answer: B (EC1.5 1-25 μM)

Question: What about the Emax (SIRT1 [1]; [12]) of the same compound?
Answer: ≥ 350%

Question: And the “Trp EC1.5 (μM)” value (SIRT1 [2]; [13])?
Answer: C (EC1.5>25 μM)

Question: And the Emax (SIRT1 [2]; [14])?
Answer: < 350%

Question: `COc1ccnc(NC(=O)c2c(C)nc3ccc(-c4ccccc4C(F)(F)F)nn23)c1` [Compound 671] was tested. Which “TAMRA EC1.5 (μM)” value (SIRT1 [1]; [11]) did it give?
Answer: A (EC1.5<1 μM)

Question: What about the Emax (SIRT1 [1]; [12]) of the same compound?
Answer: ≥ 350%

Question: And the “Trp EC1.5 (μM)” value (SIRT1 [2]; [13])?
Answer: A (EC1.5<1 μM)

Question: What about the Emax (SIRT1 [2]; [14]) of the same compound?
Answer: ≥ 350%

Question: With `O=C(Nc1cnn2ccc(-c3ccccc3OC(F)(F)F)nc12)c1ccncc1` [Compound 583] as the compound, how does the “TAMRA EC1.5” value (SIRT1 [1]; [3]) read?
Answer: B (EC1.5 1-25 μM)

Question: What about the Emax (SIRT1 [1]; [4]) of the same compound?
Answer: < 350%

Question: And the “Trp EC1.5” value (SIRT1 [2]; [5])?
Answer: C (EC1.5>25 μM)

Question: What about the Emax (SIRT1 [2]; [6]) of the same compound?
Answer: < 350%

Question: For `Cc1nc(C(=O)Nc2cnc3ccc(-c4ccccc4OC(F)(F)F)nn23)cs1` [Compound 317], which “TAMRA EC1.5 (μM)” value (SIRT1 [1]; [11]) is on record?
Answer: A (EC1.5<1 μM)

Question: And the Emax (SIRT1 [1]; [12])?
Answer: ≥ 350%

Question: What about the “Trp EC1.5 (μM)” value (SIRT1 [2]; [13]) of the same compound?
Answer: C (EC1.5>25 μM)

Question: What about the Emax (SIRT1 [2]; [14]) of the same compound?
Answer: < 350%

Question: `Cc1c(-c2ccccc2C(F)(F)F)nn2c(C(=O)Nc3cccc(OC[C@H](O)CO)n3)cnc2c1C` [Compound 387, (R)-N-(6-(2,3-dihydroxypropoxy)pyridin-2-yl)-7,8-dimethyl-6-(2-(trifluoromethyl)phenyl)imidazo[1,2-b]pyridazine-3-carboxamide] was tested. Which “TAMRA EC1.5 (μM)” value (SIRT1 [1]; [11]) did it give?
Answer: A (EC1.5<1 μM)

Question: What about the Emax (SIRT1 [1]; [12]) of the same compound?
Answer: ≥ 350%

Question: And the “Trp EC1.5 (μM)” value (SIRT1 [2]; [13])?
Answer: A (EC1.5<1 μM)

Question: What about the Emax (SIRT1 [2]; [14]) of the same compound?
Answer: ≥ 350%

Question: With `O=C(Nc1ccccn1)c1cnc2ccc(-c3ccccc3C(F)F)nn12` [Compound 32] as the compound, how does the “TAMRA EC1.5 (μM)” value (SIRT1 [1]; [7]) read?
Answer: B (EC1.5 1-25 μM)

Question: What about the Emax (SIRT1 [1]; [8]) of the same compound?
Answer: < 350%

Question: What about the “Trp EC1.5 (μM)” value (SIRT1 [2]; [9]) of the same compound?
Answer: B (EC1.5 1-25 μM)

Question: And the Emax (SIRT1 [2]; [10])?
Answer: < 350%

Question: For `Cc1nc2c(C)cc(-c3ccccc3C(F)(F)F)nn2c1C(=O)Nc1ccncc1F` [Compound 473], which “TAMRA EC1.5” value (SIRT1 [1]; [3]) is on record?
Answer: A (EC1.5<1 μM)

Question: And the Emax (SIRT1 [1]; [4])?
Answer: ≥ 350%

Question: And the “Trp EC1.5” value (SIRT1 [2]; [5])?
Answer: A (EC1.5<1 μM)

Question: What about the Emax (SIRT1 [2]; [6]) of the same compound?
Answer: ≥ 350%

Question: How did the “TAMRA EC1.5 (μM)” value (SIRT1 [1]; [11]) turn out when `Cc1cc(NC(=O)c2c(C)nc3ccc(-c4ccccc4OC[C@H](O)CO)nn23)nc(C)n1` [Compound 818] was run?
Answer: A (EC1.5<1 μM)

Question: What about the Emax (SIRT1 [1]; [12]) of the same compound?
Answer: ≥ 350%

Question: And the “Trp EC1.5 (μM)” value (SIRT1 [2]; [13])?
Answer: B (EC1.5 1-25 μM)

Question: What about the Emax (SIRT1 [2]; [14]) of the same compound?
Answer: < 350%

Question: What does the source list for `Cc1ncccc1C(=O)Nc1cnc2ccc(-c3ccccc3C(F)(F)F)nn12` [Compound 392]?
Answer: TAMRA EC1.5 (μM) (SIRT1 [1]; [11]): C (EC1.5>25 μM); Emax (SIRT1 [1]; [12]): < 350%; Trp EC1.5 (μM) (SIRT1 [2]; [13]): C (EC1.5>25 μM); Emax (SIRT1 [2]; [14]): < 350%

Question: What does the source list for `O=C(Nc1cccc(N2CCOCC2)n1)c1cnc2ccc(-c3ccccc3Cl)nn12` [Compound 95]?
Answer: TAMRA EC1.5 (μM) (SIRT1 [1]; [7]): A (EC1.5<1 μM); Emax (SIRT1 [1]; [8]): ≥ 350%; Trp EC1.5 (μM) (SIRT1 [2]; [9]): A (EC1.5<1 μM); Emax (SIRT1 [2]; [10]): < 350%

Question: Which “TAMRA EC1.5 (μM)” value (SIRT1 [1]; [11]) does the source give for `Cc1ccnc(C(=O)Nc2cnc3ccc(-c4ccccc4C(F)(F)F)nn23)c1` [Compound 233] here?
Answer: A (EC1.5<1 μM)

Question: What about the Emax (SIRT1 [1]; [12]) of the same compound?
Answer: ≥ 350%

Question: And the “Trp EC1.5 (μM)” value (SIRT1 [2]; [13])?
Answer: C (EC1.5>25 μM)

Question: What about the Emax (SIRT1 [2]; [14]) of the same compound?
Answer: < 350%

Question: `Cc1cc(-c2ccccc2C(F)(F)F)nn2c(NC(=O)c3cccc(OCC(O)CO)n3)cnc12` (centres unmarked) [Compound 427] was tested. Which “TAMRA EC1.5” value (SIRT1 [1]; [3]) did it give?
Answer: A (EC1.5<1 μM)

Question: What about the Emax (SIRT1 [1]; [4]) of the same compound?
Answer: ≥ 350%

Question: What about the “Trp EC1.5” value (SIRT1 [2]; [5]) of the same compound?
Answer: A (EC1.5<1 μM)

Question: And the Emax (SIRT1 [2]; [6])?
Answer: ≥ 350%

Question: `CC(C)c1csc(C(=O)Nc2cnn3ccc(-c4ccccc4C(F)(F)F)nc23)n1` [Compound 808] was tested. Which “TAMRA EC1.5 (μM)” value (SIRT1 [1]; [11]) did it give?
Answer: A (EC1.5<1 μM)

Question: And the Emax (SIRT1 [1]; [12])?
Answer: ≥ 350%

Question: And the “Trp EC1.5 (μM)” value (SIRT1 [2]; [13])?
Answer: B (EC1.5 1-25 μM)

Question: And the Emax (SIRT1 [2]; [14])?
Answer: < 350%

Question: `N#Cc1ccccc1-c1ccc2ncc(NC(=O)c3nccs3)n2n1` [Compound 335] was tested. Which “TAMRA EC1.5 (μM)” value (SIRT1 [1]; [11]) did it give?
Answer: B (EC1.5 1-25 μM)

Question: And the Emax (SIRT1 [1]; [12])?
Answer: < 350%

Question: What about the “Trp EC1.5 (μM)” value (SIRT1 [2]; [13]) of the same compound?
Answer: B (EC1.5 1-25 μM)

Question: What about the Emax (SIRT1 [2]; [14]) of the same compound?
Answer: < 350%
